Test results published in patent publication US20110105541A1, “ALKYL SUBSTITUTED ARYLINDENOPYRIMIDINES AND THEIR USE AS HIGHLY SELECTIVE ADENOSINE A2a RECEPTOR ANTAGONISTS” (priority 2009, published 2011).

Columns and labels:
[1] = biological target: T1, human adenosine A2A receptor (Homo sapiens, UniProt P29274); test: Adenosine A2A receptor functional assay (A2AGAL2), cAMP inducible beta-galactosidase reporter, NECA challenge; assay type: cell-based; settings: for IC50: CHO-K1 cells overexpressing human A2A receptor, antagonist curve against 15 nM NECA; for A1/A2A: ratio of A1Gal2 to A2AGal2 values (selectivity for A2A over A1)
T1 construct: expressed in transfected cells; host or cells: CHO-K1
Protocol: Adenosine A2 Receptor Functional Assay (A2AGAL2)
To initiate the functional assay, cryopreserved CHO—K1 cells overexpressing the human adenosine A2A receptor and containing a cAMP inducible beta-galactosidase reporter gene were thawed, centrifuged, DMSO containing media removed, and then seeded with fresh culture media into clear 384-well tissue culture treated plates (BD #353961) at a concentration of 10K cells/well. Prior to assay, these plates were cultured for two days at 37° C., 5% CO2, 90% Rh. On the day of the functional assay, culture media was removed and replaced with 45 μL assay medium (Hams/F-12 Modified (Mediatech # 10-080CV) supplemented w/0.1% BSA). Test compounds were diluted and 11 point curves created at a 1000× concentration in 100% DMSO. Immediately after addition of assay media to the cell plates, […] of the appropriate test compound antagonist or agonist control curves were added to cell plates using a Cartesian Hummingbird. Compound curves were allowed to incubate at room temperature on cell plates for approximately 15 minutes before addition of a 15 nM NECA (Sigma E2387) agonist challenge (5 μL volume). A control curve of NECA, a DMSO/Media control, and a single dose of Forskolin (Sigma F3917) were also included on each plate. After additions, cell plates were allowed to incubate at 37° C., 5% CO2, 90% Rh for 5.5-6 hours. After incubation, media were removed, and cell plates were washed 1×50 μL with DPBS w/o Ca & Mg (Mediatech 21-031-CV). Into dry wells, 20 μL of 1× Reporter Lysis Buffer (Promega E3971 (diluted in dH2O from 5× stock)) was added to each well and plates frozen at −20° C. overnight. For β-galactosidase enzyme colorimetric assay, plates were thawed out at room temperature and 20 μL 2× assay buffer (Promega) was added to each well. Color was allowed to develop at 37° C., 5% CO2, 90% Rh for 1-1.5 h or until reasonable signal appeared. The colorimetric reaction was stopped with the addition of 60 μL/well 1M sodium carbonate. Plates were counted at 405 nm on a SpectraMax Microplate Reader (Molecular Devices). Data was analyzed in Microsoft Excel and IC/EC50 curves were fit using a standardized macro.

[2] = biological target: T2, human adenosine A1 receptor (Homo sapiens, UniProt P30542); test: Adenosine A1 receptor functional assay (A1GAL2), cAMP inducible beta-galactosidase reporter, r-PIA/Forskolin challenge; assay type: cell-based; settings: CHO-K1 cells overexpressing human A1 receptor; antagonist curve against 4 nM r-PIA/1 uM Forskolin
T2 construct: expressed in transfected cells; host or cells: CHO-K1
T2 sequence (P30542 1-326): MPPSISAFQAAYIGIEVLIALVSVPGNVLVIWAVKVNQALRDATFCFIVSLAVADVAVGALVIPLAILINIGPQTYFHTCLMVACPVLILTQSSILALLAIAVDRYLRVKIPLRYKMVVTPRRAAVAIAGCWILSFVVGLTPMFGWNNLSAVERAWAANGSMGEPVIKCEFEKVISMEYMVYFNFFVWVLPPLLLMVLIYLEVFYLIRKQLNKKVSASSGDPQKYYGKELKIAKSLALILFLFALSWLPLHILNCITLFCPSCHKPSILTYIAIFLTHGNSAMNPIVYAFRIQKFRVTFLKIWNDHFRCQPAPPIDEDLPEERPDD
Protocol: Adenosine A1 Receptor Functional Assay (A1GAL2)
To initiate the functional assay, cryopreserved CHO—K^1 cells overexpressing the human adenosine A1 receptor and containing a cAMP inducible beta-galactosidase reporter gene were thawed, centrifuged, DMSO containing media removed, and then seeded with fresh culture media into clear 384-well tissue culture treated plates (BD #353961) at a concentration of 10K cells/well. Prior to assay, these plates were cultured for two days at 37° C., 5% CO2, 90% Rh. On the day of the functional assay, culture media was removed and replaced with 45 μL assay medium (Hams/F-12 Modified (Mediatech # 10-080CV) supplemented w/0.1% BSA). Test compounds were diluted and 11 point curves created at a 1000× concentration in 100% DMSO. Immediately after addition of assay media to the cell plates, […] of the appropriate test compound antagonist or agonist control curves were added to cell plates using a Cartesian Hummingbird. Compound curves were allowed to incubate at room temperature on cell plates for approximately 15 minutes before addition of a 4 nM r-PIA (Sigma P4532)/1 uM Forskolin (Sigma F3917) agonist challenge (5 μL volume). A control curve of r-PIA in 1 uM Forskolin, a DMSO/Media control, and a single dose of Forskolin were also included on each plate. After additions, cell plates were allowed to incubate at 37° C., 5% CO2, 90% Rh for 5.5-6 hours. After incubation, media was removed, and cell plates were washed 1×50 μL with DPBS w/o Ca & Mg (Mediatech 21-031-CV). Into dry wells, 20 μL of 1× Reporter Lysis Buffer (Promega E3971 (diluted in dH2O from 5× stock)) was added to each well and plates frozen at −20° C. overnight. For β-galactosidase enzyme colorimetric assay, plates were thawed out at room temperature and 20 μL 2× assay buffer (Promega) was added to each well. Color was allowed to develop at 37° C., 5% CO2, 90% Rh for 1-1.5 h or until reasonable signal appeared. […] Plates were counted at 405 nm on a SpectraMax Microplate Reader (Molecular Devices). Data was analyzed in Microsoft Excel and IC/EC50 curves were fit using a standardized macro.

T1 sequence (P29274 whole entry): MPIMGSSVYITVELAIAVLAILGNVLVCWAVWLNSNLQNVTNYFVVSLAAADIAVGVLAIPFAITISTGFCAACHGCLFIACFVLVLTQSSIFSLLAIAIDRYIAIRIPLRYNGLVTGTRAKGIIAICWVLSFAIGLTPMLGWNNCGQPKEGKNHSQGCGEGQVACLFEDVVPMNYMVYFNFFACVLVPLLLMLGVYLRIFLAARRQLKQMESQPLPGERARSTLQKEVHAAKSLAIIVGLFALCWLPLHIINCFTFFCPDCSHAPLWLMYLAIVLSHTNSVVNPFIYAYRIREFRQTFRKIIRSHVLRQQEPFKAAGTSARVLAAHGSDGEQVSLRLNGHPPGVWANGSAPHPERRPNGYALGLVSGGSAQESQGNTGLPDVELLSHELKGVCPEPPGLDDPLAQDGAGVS

| IC50 [1] | A1/A2A [1] | IC50 [2] | Structure (SMILES) |
| --- | --- | --- | --- |
| 11.9 nM | 276.249 | 3280 nM | Cc1nc(C)c(Cc2cccc3c2-c2nc(N)nc(-c4ccc(F)cc4)c2C3=O)s1 [Example 1, 2-Amino-9-(2,4-dimethyl-thiazol-5-ylmethyl)-4-(4-fluoro-phenyl)-indeno[1,2-d]pyrimidin-5-one] |
| 0.75 nM | 195.975 | 147 nM | Nc1nc(-c2ccc(F)cc2)c2c(n1)-c1c(Cc3cn[nH]c3)cccc1C2=O [Example 2, 2-Amino-4-(4-fluoro-phenyl)-9-(1H-pyrazol-4-ylmethyl)-indeno[1,2-d]pyrimidin-5-one] |
| 41.3 nM | 64.5654 | 2670 nM | Cc1noc(C)c1Cc1cccc2c1-c1nc(N)nc(-c3ccc(F)cc3)c1C2=O [Example 3, 2-Amino-9-(3,5-dimethyl-isoxazol-4-ylmethyl)-4-(4-fluoro-phenyl)-indeno[1,2-d]pyrimidin-5-one] |
